Experimental data from ChEMBL document CHEMBL2203207, “Inhibition of monoamine oxidase by derivatives of piperine, an alkaloid from the pepper plant Piper nigrum, for possible use in Parkinson's disease” (Bioorg Med Chem Lett, 2012).

Key:
[1] = target: T1, Amine oxidase [flavin-containing] A (Homo sapiens, UniProt P21397); experiment: Inhibition of MAO-A assessed as inhibition of kyneuramine conversion to 4-hydroxyquinoline after 20 mins by fluorescence assay
T1 sequence (P21397 whole entry): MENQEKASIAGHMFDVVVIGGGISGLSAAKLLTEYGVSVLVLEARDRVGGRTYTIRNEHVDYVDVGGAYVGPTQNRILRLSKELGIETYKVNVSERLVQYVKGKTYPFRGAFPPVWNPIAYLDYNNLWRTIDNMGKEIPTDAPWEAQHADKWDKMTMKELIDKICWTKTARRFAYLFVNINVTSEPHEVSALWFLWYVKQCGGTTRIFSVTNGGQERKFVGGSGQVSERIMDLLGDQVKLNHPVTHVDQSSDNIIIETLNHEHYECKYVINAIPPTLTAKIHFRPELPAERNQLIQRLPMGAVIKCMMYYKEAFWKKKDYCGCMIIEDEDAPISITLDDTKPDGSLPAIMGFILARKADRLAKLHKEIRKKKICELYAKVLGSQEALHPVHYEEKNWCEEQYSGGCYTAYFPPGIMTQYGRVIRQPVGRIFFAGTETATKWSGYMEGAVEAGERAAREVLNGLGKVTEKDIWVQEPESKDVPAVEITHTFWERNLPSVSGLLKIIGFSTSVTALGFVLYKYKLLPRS

[2] = target: T2, Amine oxidase [flavin-containing] B (Homo sapiens, UniProt P27338); experiment: Inhibition of MAO-B assessed as inhibition of kyneuramine conversion to 4-hydroxyquinoline after 20 mins by fluorescence assay
T2 sequence (P27338 whole entry): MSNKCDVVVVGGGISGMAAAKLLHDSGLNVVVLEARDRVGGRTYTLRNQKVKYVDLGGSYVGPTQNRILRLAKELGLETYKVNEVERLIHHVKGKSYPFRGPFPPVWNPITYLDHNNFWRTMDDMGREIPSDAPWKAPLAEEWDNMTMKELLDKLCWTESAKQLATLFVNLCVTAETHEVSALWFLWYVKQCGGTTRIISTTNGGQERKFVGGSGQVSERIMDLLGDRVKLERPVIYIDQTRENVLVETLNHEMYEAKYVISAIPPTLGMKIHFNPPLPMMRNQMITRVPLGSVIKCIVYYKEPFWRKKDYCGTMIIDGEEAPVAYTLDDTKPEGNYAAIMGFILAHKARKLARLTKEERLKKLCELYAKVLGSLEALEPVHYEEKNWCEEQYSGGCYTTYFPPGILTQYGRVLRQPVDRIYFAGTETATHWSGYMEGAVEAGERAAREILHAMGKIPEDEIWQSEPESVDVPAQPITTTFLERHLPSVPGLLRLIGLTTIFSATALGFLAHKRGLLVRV

Albumin [3] = target: T3, Albumin (Bos taurus, UniProt P02769); experiment: Binding affinity to bovine serum albumin at 8.9 uM by fluorescence assay; assay type: ADME; conditions: cattle, isolated protein
T3 sequence (P02769 whole entry): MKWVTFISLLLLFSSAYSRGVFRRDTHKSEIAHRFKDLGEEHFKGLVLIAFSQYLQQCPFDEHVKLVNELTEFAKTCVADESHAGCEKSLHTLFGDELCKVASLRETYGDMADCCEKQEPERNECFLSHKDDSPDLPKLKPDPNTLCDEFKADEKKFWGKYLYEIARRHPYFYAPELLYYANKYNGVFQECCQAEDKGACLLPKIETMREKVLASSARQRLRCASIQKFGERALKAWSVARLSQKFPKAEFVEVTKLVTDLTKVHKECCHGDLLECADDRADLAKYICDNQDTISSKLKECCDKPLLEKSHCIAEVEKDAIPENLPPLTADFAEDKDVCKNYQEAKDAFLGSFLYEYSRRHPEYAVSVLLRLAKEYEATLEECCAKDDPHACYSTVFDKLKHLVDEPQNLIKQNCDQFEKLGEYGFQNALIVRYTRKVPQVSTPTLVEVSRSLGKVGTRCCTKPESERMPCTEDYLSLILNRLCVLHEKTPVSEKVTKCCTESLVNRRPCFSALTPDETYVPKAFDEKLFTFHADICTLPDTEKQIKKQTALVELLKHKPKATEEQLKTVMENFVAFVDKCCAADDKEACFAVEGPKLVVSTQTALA

Albumin [4] = target: T3, Albumin; experiment: Binding affinity to bovine serum albumin at 16 uM by fluorescence assay; assay type: ADME; conditions: cattle, isolated protein

IC50 [1] [µM] | IC50 [2] [µM] | Activity (Albumin [3]) [%] | Activity (Albumin [4]) [%] | Structure (SMILES)
59 | 0.483 | 50 | – | O=C(/C=C/C=C/c1ccc2c(c1)OCO2)N1CCCCC1 [PIPERINE]
> 100 | 1.13 | – | – | O=C(/C=C/c1ccc2c(c1)OCO2)NC1CCCC1
> 100 | 4.89 | – | – | O=C(/C=C/c1ccc2c(c1)OCO2)N1CCCC1

The remaining lines, values behind:

Structure (SMILES) | IC50 [1] [µM] | IC50 [2] [µM] | Activity (Albumin [3]) [%] | Activity (Albumin [4]) [%]
O=C(/C=C/c1ccc2c(c1)OCO2)N1CCOCC1 | > 100 | 6.39 | – | –
O=C(/C=C/c1ccc2c(c1)OCO2)NC1CCCCC1 | > 100 | 0.666 | – | –
CC1CCN(C(=O)/C=C/c2ccc3c(c2)OCO3)CC1 | > 100 | 0.497 | – | 50
S=C(c1ccc2c(c1)OCO2)N1CCCCC1 | > 100 | 15.4 | – | –
O=C(CCN1CCCCC1)c1ccc2c(c1)OCO2 | > 100 | 3.43 | – | –
O=C(c1ccc2c(c1)OCO2)N1CCCCCC1 | > 100 | > 100 | – | –
O=C(CN1CCCCC1)c1ccc2c(c1)OCO2 | > 100 | 3.18 | – | –
